Measured values taken from PubChem BioAssay AID2644 (Southern Research Specialized Biocontainment Screening …, 2010).
Active and inactive are the calls of the source.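 How the source made its calls: active means compounds cutting the HIV-1 infection reporter signal by at least 50%; inactive means the rest.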

Tested on: MAGI-CCR5 cells, HIV-1 Ba-L, beta-gal luminescence, 48 h
Experiment: HIV-1 replication inhibition, CCR5-tropic virus, SAR follow-up, cell-based, HIV-1 Ba-L, beta-gal reporter, 5%/10% serum (AID 2644)
[1] = measured here: antiviral IC50 in 10% serum

Row | Compound | IC50 | IC50 [1] [µM]
1 | N#C/C(=C\c1ccc(OCc2ccc(Cl)cc2)cc1)C(=O)Nc1cccc(C(=O)O)c1 | > 100 µM (inactive) | > 100
2 | CCC(Sc1nc2ccsc2c(=O)n1Cc1ccc(C(=O)O)cc1)C(=O)Nc1ccc(C)c(Cl)c1 (configuration not stated) | 14.6 µM | 37.8
3 | COc1cc(/C=C2\SC(=O)N(c3ccccc3Cl)C2=O)cc([N+](=O)[O-])c1O | 13.9 µM | 23.8
4 | O=C(O)c1ccccc1N=Nc1c(O)[nH]c2ccc([N+](=O)[O-])cc12 | > 100 µM (inactive) | > 100
5 | Cc1c(Cl)cccc1NS(=O)(=O)c1ccc2c(c1)C1C=CCC1C(c1ccc(C(=O)O)cc1)N2 (configuration not stated) | 16.7 µM | 40.6
6 | CC(C)(C)c1cc(-c2csc(Nc3ccccc3)[n+]2Cc2ccc(C(=O)O)cc2)cc(C(C)(C)C)c1O | 7.17 µM | 12.3
7 | CCOC(=O)c1sc(N2C(=O)C(O)=C(C(=O)c3ccc(C)o3)C2c2cccc([N+](=O)[O-])c2)nc1C (configuration not stated) | 20.6 µM | 18.5
8 | CCOC(=O)C1=C(C)N=c2sc(=Cc3ccc(OCC(=O)O)cc3)c(=O)n2C1c1ccc(OC(C)C)cc1 (configuration not stated) | 20.9 µM | 26
9 | Oc1c(Cl)cc(Cl)c(Cl)c1Cc1c(O)c(Cl)cc(Cl)c1Cl | 49.3 µM | > 100
10 | CCC(C)(C)C1CCc2c(sc(NC(=O)c3ccccc3C(=O)O)c2C#N)C1 (configuration not stated) | > 100 µM (inactive) | > 100
11 | O=[N+]([O-])c1cc([N+](=O)[O-])c2oc(-c3ccccc3)c(Br)c2c1O | 4.46 µM | 9.38
12 | CSc1nnc(-c2ccccc2N=Cc2c(C)[nH]n(-c3ccc4ccccc4c3)c2=O)c(=O)[nH]1 | 53.1 µM | > 100
13 | CC(C)NC(=O)c1sc(=S)n2c1[nH]c(=O)c1ccc(C(=O)NCCc3ccc(Cl)cc3)cc12 | 35.1 µM | 63.4
14 | O=C1NC(=S)N(c2ccc(F)cc2)C(=O)/C1=C\c1ccoc1 | > 100 µM (inactive) | > 100
15 | CCOc1cc(/C=C2\SC(=O)N(CC(=O)Nc3ccccc3F)C2=O)cc([N+](=O)[O-])c1O | 21 µM | 26.3
16 | Cc1c2c(=O)n(-c3nc4ccccc4s3)nc-2cc(O)n1Cc1ccccc1 | 12.5 µM | 11.1
17 | COC(=O)c1sc(-c2ccc(C(C)(C)C)cc2)cc1NC(=O)c1ccccc1C(=O)O | 49.9 µM | 54.9
18 | O=C(N/N=C/c1c(O)n(C2CCCCC2)c(=S)[nH]c1=O)c1ccccc1O | 46.4 µM | 45
19 | N#C/C(=C\c1ccc(O)c([N+](=O)[O-])c1)c1nc2ccccc2s1 | 7.96 µM | 15.1
20 | COc1cc(/C=N/NS(=O)(=O)c2ccc3ccccc3c2)ccc1OCc1ccc(C(=O)O)cc1 | > 100 µM (inactive) | > 100
21 | O=C(O)CCCN1C(=O)/C(=C/c2ccc(-c3nc4ccccc4s3)o2)SC1=S | 80.8 µM | 95.4
